Target: ATP-dependent translocase ABCB1 (Homo sapiens, UniProt P08183)
Experiment: TP_TRANSPORTER: transepithelial transport of cyclosporin A in Caco-2 cells
Assay type: functional, cell-based

Sequence of ATP-dependent translocase ABCB1 (P08183 whole entry): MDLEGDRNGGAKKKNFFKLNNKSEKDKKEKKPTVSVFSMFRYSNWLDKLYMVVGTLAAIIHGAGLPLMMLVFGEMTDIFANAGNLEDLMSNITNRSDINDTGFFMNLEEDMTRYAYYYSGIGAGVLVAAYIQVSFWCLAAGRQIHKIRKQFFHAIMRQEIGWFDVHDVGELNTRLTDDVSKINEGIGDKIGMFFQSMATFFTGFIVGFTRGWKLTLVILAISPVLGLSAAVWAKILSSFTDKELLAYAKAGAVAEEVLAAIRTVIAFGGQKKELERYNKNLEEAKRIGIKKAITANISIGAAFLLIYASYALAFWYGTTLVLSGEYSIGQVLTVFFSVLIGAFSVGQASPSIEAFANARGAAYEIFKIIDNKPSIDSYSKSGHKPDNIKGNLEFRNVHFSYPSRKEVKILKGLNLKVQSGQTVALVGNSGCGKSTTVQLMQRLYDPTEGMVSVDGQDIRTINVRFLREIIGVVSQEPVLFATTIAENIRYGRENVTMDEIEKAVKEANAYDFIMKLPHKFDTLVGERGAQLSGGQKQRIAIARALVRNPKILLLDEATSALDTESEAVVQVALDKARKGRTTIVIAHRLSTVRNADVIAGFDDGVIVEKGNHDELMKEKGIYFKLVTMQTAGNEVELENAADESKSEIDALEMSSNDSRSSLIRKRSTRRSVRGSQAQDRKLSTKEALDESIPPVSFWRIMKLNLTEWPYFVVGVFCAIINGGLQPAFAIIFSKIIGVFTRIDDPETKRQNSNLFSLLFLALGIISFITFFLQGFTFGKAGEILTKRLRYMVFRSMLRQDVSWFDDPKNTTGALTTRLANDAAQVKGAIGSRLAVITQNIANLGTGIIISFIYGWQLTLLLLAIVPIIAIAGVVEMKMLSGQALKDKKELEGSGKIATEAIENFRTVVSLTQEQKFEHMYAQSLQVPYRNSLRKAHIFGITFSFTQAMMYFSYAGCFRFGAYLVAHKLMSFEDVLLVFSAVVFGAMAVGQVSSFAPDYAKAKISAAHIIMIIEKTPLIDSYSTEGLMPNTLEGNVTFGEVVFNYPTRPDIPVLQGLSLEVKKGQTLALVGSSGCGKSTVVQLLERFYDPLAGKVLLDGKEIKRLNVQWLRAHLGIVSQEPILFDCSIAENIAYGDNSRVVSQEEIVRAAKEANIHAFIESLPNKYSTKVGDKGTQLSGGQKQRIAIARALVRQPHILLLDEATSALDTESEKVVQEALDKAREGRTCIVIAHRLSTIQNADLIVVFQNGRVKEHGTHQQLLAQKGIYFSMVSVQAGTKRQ

Sequence | Activity
CREMOPHOR EL | inhibitor [+]
PLURONIC L81 | inhibitor [+]
